Format in all cases: biochemical
The target of assay [1] is T1, purified recombinant human JAK1 protein (Homo sapiens, UniProt P23458).
T1 construct: purchased Carna Biosciences, Inc
The assay is described as follows: Measurement of JAK1 kinase-inhibitory activity. The conditions noted are these: substrate peptide 1 μM, ATP 75 M (so in the source), 25° C., 120 minutes. How it is done:
1) Measurement of JAK1 Kinase-Inhibitory Activity
The activity of the compound of the present invention to inhibit the activity of JAK1 kinase was measured.
Among materials for the measurement of this inhibitory activity, a substrate peptide and a kinase protein were acquired as follows. As such a substrate peptide, a substrate peptide for QSS Assist™ JAK1-MSA assay kit (Carna Biosciences, Inc.) was purchased. As such a kinase protein, a purified recombinant human JAK1 protein (Carna Biosciences, Inc.) was purchased.
The method for measuring the inhibitory activity is as follows. First, the compounds of the present invention were each dissolved in dimethyl sulfoxide (DMSO), and a serial dilution was then prepared by the use of DMSO. Subsequently, a serial dilution solution of the compound (the final concentration of DMSO upon a kinase reaction: 5.0%) or DMSO (final concentration: 5.0%) was mixed with a solution containing the substrate peptide (final concentration: 1 μM), magnesium chloride (final concentration: 5 mM) and ATP (final concentration: 75 µM) in a buffer for kinase reaction (20 mM HEPES (pH 7.5), 2 mM dithiothreitol and 0.01% Triton X-100). Thereafter, a JAK1 protein was further added to the mixed solution, and the obtained mixture was then incubated at 25° C. for 120 minutes to carry out a kinase reaction. To the reaction solution, EDTA was added to a final concentration of 30 mM, so as to terminate the reaction. Finally, with LabChip EZ Reader II (Perkin Elmer Corp.), an unphosphorylated substrate peptide (S) and a phosphorylated peptide (P) were subjected to microchannel capillary electrophoresis, so that the two peptides were separated from each other and were then detected. The amount of a phosphorylation reaction was obtained based on the heights of the peaks of S and P, and the concentration of the compound capable of inhibiting 50% of the phosphorylation reaction was defined as an IC50 value (nM).

Assay [2] addresses T2, purified recombinant human JAK2 protein (Homo sapiens, UniProt O60674).
T2 construct: purchased Carna Biosciences, Inc
Kind of assay: Measurement of JAK2 kinase-inhibitory activity. The note with it: FL-Peptide 22 1 μM, ATP 10 μM, 25° C., 80 minutes. How it is done:
2) Measurement of JAK2 Kinase-Inhibitory Activity
The activity of the compound of the present invention to inhibit the activity of JAK2 kinase was measured.
Among materials for the measurement of this inhibitory activity, a substrate peptide and a kinase protein were acquired as follows. As such a substrate peptide, FL-Peptide 22 (Perkin Elmer Corp.) was purchased. As such a kinase protein, a purified recombinant human JAK2 protein (Carna Biosciences, Inc.) was purchased.
(§1) The method for measuring the inhibitory activity is as follows. First, a serial dilution of the compound of the present invention was prepared by the same method as that described in the above section regarding JAK1. This serial dilution solution (the final concentration of DMSO upon a kinase reaction: 5.0%) or DMSO (final concentration: 5.0%) was mixed with a solution containing the substrate peptide (final concentration: 1 μM), magnesium chloride (final concentration: 10 mM) and ATP (final concentration: 10 μM) in a buffer for kinase reaction (15 mM Tris (pH 7.5), 2 mM dithiothreitol and 0.01% Tween 20). Thereafter, a JAK2 protein was further added to the mixed solution, and the obtained mixture was then incubated at 25° C. for 80 minutes to carry out a kinase reaction. To the reaction solution, EDTA was added to a final concentration of 30 mM, so as to terminate the reaction. After termination of the reaction, the measurement and the data analysis were carried out by the same methods as those described in the above section regarding JAK1.

Assay [3] has as its target T3, purified recombinant human JAK3 protein (Homo sapiens, UniProt P52333).
T3 construct: purchased Carna Biosciences, Inc
T3 sequence (P52333 1-1124): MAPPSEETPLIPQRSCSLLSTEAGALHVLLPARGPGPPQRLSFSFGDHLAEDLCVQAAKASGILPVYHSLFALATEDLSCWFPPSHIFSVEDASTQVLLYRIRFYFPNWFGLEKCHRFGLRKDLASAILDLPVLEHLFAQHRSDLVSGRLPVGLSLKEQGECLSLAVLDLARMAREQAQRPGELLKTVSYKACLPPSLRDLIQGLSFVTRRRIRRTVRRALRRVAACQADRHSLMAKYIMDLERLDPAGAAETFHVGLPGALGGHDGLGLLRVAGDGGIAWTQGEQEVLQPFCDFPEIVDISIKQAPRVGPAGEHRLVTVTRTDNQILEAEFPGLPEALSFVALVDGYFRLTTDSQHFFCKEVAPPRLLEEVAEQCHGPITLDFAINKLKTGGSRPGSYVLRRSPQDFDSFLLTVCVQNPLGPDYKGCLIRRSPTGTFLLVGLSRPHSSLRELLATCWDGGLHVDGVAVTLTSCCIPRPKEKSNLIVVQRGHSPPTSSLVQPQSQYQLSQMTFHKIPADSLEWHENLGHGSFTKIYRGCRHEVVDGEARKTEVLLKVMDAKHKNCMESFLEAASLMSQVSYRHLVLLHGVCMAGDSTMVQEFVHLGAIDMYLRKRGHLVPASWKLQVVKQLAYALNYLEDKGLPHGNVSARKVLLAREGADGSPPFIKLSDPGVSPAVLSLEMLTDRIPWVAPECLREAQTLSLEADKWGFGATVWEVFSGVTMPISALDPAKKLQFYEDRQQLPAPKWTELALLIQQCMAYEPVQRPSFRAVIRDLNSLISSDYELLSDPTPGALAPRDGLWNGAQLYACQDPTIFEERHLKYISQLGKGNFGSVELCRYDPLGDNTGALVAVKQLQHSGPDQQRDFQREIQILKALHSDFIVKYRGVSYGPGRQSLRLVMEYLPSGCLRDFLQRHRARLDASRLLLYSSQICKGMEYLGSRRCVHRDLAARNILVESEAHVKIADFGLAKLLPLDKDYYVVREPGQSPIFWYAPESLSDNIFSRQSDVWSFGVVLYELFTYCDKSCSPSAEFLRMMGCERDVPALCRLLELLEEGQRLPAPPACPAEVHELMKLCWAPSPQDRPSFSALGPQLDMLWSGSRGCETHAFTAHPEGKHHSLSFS
The assay is described as follows: Measurement of JAK3 kinase-inhibitory activity. The note with it: substrate peptide 1 μM, ATP 5 μM, 25° C., 80 minutes. How it is done:
3) Measurement of JAK3 Kinase-Inhibitory Activity
The activity of the compound of the present invention to inhibit the activity of JAK3 kinase was measured.
Among materials for the measurement of this inhibitory activity, a substrate peptide and a kinase protein were acquired as follows. As such a substrate peptide, a substrate peptide for QSS Assist™ JAK3-MSA assay kit (Carna Biosciences, Inc.) was purchased. As such a kinase protein, a purified recombinant human JAK3 protein (Carna Biosciences, Inc.) was purchased.
as §1, with “5” for “10”, “(20” for “(15”, “HEPES” for “Tris”, “Triton X-100).” for “Tween 20).”, “JAK3” for “JAK2”

Structures are written as SMILES.

Our source for the IC50 values is US9676773B2, “Azaindole derivative” (TAIHO PHARMACEUTICAL CO., LTD., priority 2014, dated 2017).

T2 sequence (O60674 whole entry): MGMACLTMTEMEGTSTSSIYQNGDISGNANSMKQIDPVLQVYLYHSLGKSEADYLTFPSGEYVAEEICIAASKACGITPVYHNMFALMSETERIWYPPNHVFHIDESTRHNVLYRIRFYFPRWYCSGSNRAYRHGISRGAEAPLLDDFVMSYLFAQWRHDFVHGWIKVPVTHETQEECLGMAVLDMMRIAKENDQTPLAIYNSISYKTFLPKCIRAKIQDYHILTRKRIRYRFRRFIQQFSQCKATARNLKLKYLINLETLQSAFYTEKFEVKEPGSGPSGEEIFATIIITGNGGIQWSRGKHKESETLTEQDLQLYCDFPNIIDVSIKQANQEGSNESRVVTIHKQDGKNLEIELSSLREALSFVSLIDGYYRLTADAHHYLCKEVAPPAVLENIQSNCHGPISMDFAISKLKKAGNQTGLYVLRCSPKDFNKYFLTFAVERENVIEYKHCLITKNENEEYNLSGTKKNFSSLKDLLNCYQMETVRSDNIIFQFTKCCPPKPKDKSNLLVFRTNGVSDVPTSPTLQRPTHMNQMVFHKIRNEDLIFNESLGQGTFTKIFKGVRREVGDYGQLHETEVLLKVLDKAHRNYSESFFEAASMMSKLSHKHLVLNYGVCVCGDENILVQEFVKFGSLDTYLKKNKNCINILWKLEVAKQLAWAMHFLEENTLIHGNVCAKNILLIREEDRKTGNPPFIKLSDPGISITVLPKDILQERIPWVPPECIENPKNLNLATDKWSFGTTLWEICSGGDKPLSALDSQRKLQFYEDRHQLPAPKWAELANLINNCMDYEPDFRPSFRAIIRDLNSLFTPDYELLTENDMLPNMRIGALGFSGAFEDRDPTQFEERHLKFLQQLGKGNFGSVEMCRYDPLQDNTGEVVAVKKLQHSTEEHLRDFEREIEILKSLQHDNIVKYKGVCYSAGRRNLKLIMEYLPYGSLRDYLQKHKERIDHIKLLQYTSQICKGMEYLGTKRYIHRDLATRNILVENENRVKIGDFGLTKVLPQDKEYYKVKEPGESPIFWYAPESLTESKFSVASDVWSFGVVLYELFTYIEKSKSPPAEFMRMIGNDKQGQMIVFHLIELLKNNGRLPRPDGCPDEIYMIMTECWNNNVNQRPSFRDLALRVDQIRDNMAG
T1 sequence (P23458 whole entry): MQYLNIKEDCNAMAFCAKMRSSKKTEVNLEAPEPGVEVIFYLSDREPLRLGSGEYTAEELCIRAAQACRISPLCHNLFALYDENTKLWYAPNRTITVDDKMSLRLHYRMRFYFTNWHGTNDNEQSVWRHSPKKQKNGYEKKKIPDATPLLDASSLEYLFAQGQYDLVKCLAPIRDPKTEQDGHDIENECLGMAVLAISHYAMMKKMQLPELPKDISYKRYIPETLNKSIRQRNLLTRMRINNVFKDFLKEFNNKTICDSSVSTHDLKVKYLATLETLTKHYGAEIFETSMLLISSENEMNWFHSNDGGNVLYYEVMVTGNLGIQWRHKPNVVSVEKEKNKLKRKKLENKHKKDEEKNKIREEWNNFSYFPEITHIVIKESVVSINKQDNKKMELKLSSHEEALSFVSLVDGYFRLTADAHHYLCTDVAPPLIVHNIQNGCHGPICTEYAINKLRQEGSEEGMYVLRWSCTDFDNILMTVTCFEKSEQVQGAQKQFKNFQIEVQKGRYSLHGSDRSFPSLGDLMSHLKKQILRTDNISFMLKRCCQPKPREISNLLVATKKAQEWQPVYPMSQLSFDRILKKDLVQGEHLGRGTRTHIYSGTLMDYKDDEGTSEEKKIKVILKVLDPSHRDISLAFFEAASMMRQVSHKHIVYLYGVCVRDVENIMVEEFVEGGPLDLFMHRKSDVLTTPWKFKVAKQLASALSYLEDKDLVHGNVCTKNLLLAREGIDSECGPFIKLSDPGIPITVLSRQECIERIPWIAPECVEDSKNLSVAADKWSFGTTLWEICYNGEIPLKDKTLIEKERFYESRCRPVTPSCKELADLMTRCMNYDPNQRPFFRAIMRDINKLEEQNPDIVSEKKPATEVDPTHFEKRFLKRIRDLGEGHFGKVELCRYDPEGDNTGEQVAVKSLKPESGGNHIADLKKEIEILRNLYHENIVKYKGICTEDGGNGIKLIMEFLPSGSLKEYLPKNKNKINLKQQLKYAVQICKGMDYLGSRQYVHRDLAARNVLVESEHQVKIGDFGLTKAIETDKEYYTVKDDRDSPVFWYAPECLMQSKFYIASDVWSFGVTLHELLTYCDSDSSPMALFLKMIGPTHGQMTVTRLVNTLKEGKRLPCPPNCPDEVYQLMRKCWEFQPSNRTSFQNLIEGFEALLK

What is called IC50 is the concentration that gives 50% inhibition. Regarding `C=CC(=O)NC1CCC=C(c2ccnc3[nH]cc(C4=CC(=O)CCC4)c23)C1` (stereo not drawn) [Compound 32, N-(3-(3-(3-Oxocyclohex-1-en-1-yl)-1H-pyrrolo[2,3-b]pyridin-4-yl)cyclohex-3-en-1-yl)acrylamide], the IC50 in assay [1] was more than 10000 nM; in assay [2] it was 3000 nM; in assay [3], 0.72 nM.
With `C=CC(=O)NC1CCC=C(c2ccnc3[nH]cc(C4=CCCCC4)c23)C1` (stereo not drawn) [Compound 30, N-(3-(3-(cyclohex-1-en-1-yl)-1H-pyrrolo[2,3-b]-pyridin-4-yl)cyclohex-3-en-1-yl)acrylamide], the results for the IC50 in assay [1], in assay [2] and in assay [3] were 3200 nM, 1400 nM and 0.48 nM, respectively.
Taken in the same sequence, the figures for `C=CC(=O)NC1CCC=C(c2ccnc3[nH]cc(-c4cncs4)c23)C1` (stereo not drawn) [Compound 13, N-(3-(3-(Thiazol-5-yl)-1H-pyrrolo[2,3-b]pyridin-4-yl)cyclohex-3-en-1-yl)acrylamide] were 5200 nM, 2000 nM and 0.34 nM.
On the same counts, the results for `C=CC(=O)NC1CCC=C(c2ccnc3[nH]cc(-c4ccc(N)nc4)c23)C1` (stereo not drawn) [Compound 39, N-(3-(3-(6-Aminopyridin-3-yl)-1H-pyrrolo[2,3-b]pyridin-4-yl)cyclohex-3-en-1-yl)acrylamide] are more than 10000 nM, 4800 nM and 0.83 nM.
As for `C=CC(=O)NC1CCC=C(c2ccnc3[nH]cc(C4=CCOCC4)c23)C1` (stereo not drawn) [Compound 31, N-(3-(3-(3,6-Dihydro-2H-pyran-4-yl)-1H-pyrrolo[2,3-b]pyridin-4-yl)cyclohex-3-en-1-yl)acrylamide], the IC50 came to 7700 nM in assay [1], 3000 nM in assay [2] and 0.71 nM in assay [3].
Regarding `C=CC(=O)NC1CCC=C(c2ccnc3[nH]cc(-c4cccnc4)c23)C1` (stereo not drawn) [Compound 4, N-(3-(3-(Pyridin-3-yl)-1H-pyrrolo[2,3-b]pyridin-4-yl)cyclohex-3-en-1-yl)acrylamide], the IC50 in assay [1] came out at 7000 nM; in assay [2] it was 2600 nM; in assay [3] it was 0.53 nM.
Taken in the same sequence, the figures for `C=CC(=O)NC1CCC=C(c2c(C#N)cnc3[nH]cc(-c4ccco4)c23)C1` (stereo not drawn) [Compound 45, N-(3-(5-Cyano-3-(furan-2-yl)-1H-pyrrolo[2,3-b]pyridin-4-yl)cyclohex-3-en-1-yl)acrylamide] were 1600 nM, 440 nM and 0.34 nM.
Take `C=CC(=O)NC1CCC=C(c2ccnc3[nH]cc(-c4nnc(C)o4)c23)C1` (stereo not drawn) [Compound 50, N-(3-(3-(5-Methyl-1,3,4-oxadiazol-2-yl)-1H-pyrrolo[2,3-b]pyridin-4-yl)cyclohex-3-en-1-yl)acrylamide]: the IC50 in assay [1] is 3800 nM; in assay [2] it was 920 nM; in assay [3], 0.62 nM.
Take `C=CC(=O)NC1CCC=C(c2c(-c3cnn(C)c3)cnc3[nH]cc(-c4cccnc4)c23)C1` (stereo not drawn) [Compound 19, N-(3-(5-(1-Methyl-1H-pyrazolo-4-yl)-3-(pyridin-3-yl)-1H-pyrrolo[2,3-b]pyridin-4-yl)cyclohex-3-en-1-yl)acrylamide]: the IC50 in assay [1] came to 1000 nM; in assay [2], 280 nM; in assay [3] it was 0.51 nM.
In the case of `C=CC(=O)NC1CCC=C(c2ccnc3[nH]cc(-c4ccncc4)c23)C1` (stereo not drawn) [Compound 2, N-(3-(3-(Pyridin-4-yl)-1H-pyrrolo[2,3-b]pyridin-4-yl)cyclohex-3-en-1-yl)acrylamide], the IC50 in assay [1] was more than 10000 nM; in assay [2], 3100 nM; in assay [3], 0.38 nM.
Take `C=CC(=O)NC1CCC=C(c2ccnc3[nH]cc(-c4nnc(CC)o4)c23)C1` (stereo not drawn) [Compound 51, N-(3-(3-(5-Ethyl-1,3,4-oxadiazol-2-yl)-1H-pyrrolo[2,3-b]pyridin-4-yl)cyclohex-3-en-1-yl)acrylamide]: the IC50 in assay [1] is 3000 nM; in assay [2] it was 380 nM; in assay [3] it was 0.61 nM.
Consider `C=CC(=O)NC1CCC=C(c2ccnc3[nH]cc(-c4ccc(C=O)o4)c23)C1` (stereo not drawn) [Compound 9, N-(3-(3-(5-Formylfuran-2-yl)-1H-pyrrolo[2,3-b]pyridin-4-yl)cyclohex-3-en-1-yl)acrylamide], for which the IC50 in assay [1] was 2400 nM; in assay [2], 430 nM; in assay [3], less than 0.3 nM.
Taken in the same sequence, the figures for `C=CC(=O)NC1CCC=C(c2ccnc3[nH]cc(-c4cccnc4F)c23)C1` (stereo not drawn) [Compound 38, N-(3-(3-(2-Fluoropyridin-3-yl)-1H-pyrrolo[2,3-b]pyridin-4-yl)cyclohex-3-en-1-yl)acrylamide] were 5800 nM, 2500 nM and 0.67 nM.
As for `C=CC(=O)NC1CCC=C(c2ccnc3[nH]cc(-c4ccc[n+]([O-])c4)c23)C1` (stereo not drawn) [Compound 43, 3-(4-(5-Acrylamidecyclohex-1-en-1-yl)-1H-pyrrolo[2,3-b]pyridin-3-yl)pyridine 1-oxide], the figures for the half-inhibitory concentration (IC50) in assay [1], in assay [2] and in assay [3] were more than 10000 nM, 9100 nM and 0.93 nM, respectively.
